Results published in patent US20110244496A1, “HIV REVERSE TRANSCRIPTASE COMPOSITIONS AND METHODS” (priority 2007, published 2011).
Like-named read-outs stand apart in the source and are kept apart here.

Legend:
[1] = biological target: T1, Lys103Asn/Tyr181Cys double mutant RT (Human immunodeficiency virus type 1 group M subtype B, UniProt P03366, K702N/Y780C); experiment: EC50 of TMC278 against K103N/Y181C double mutant; assay type: cell-based, HIV-1; details: Example 4
T1 construct: RT is a heterodimer consisting of a p66 and p51 subunit

K103N RT mutant = biological target: T2, K103N RT mutant (Human immunodeficiency virus type 1 group M subtype B, UniProt P03366, K702N); experiment: EC50 of TMC278 against K103N mutant; assay type: cell-based, HIV-1; details: Example 4
T2 construct: RT is a heterodimer consisting of a p66 and p51 subunit

[2] = biological target: T1, Lys103Asn/Tyr181Cys double mutant RT; details: cited from earlier work
[3] = patients given TMC278 once daily for seven days; Goebel et al., 2006; cited from earlier work
[4] = biological target: T3, Leu100Ile/Lys103Asn double mutant RT (Human immunodeficiency virus type 1 group M subtype B, UniProt P03366, K702N/L699I); details: cited from earlier work
T3 construct: RT is a heterodimer consisting of a p66 and p51 subunit

wild-type RT = biological target: T4, wild-type RT (Human immunodeficiency virus type 1 group M subtype B, UniProt P03366); details: cited from earlier work
T4 construct: RT is a heterodimer consisting of a p66 and p51 subunit

[5] = Goebel et al., 2006, cited from earlier work
[6] = biological target: T3, Leu100Ile/Lys103Asn double mutant RT; experiment: EC50 of TMC278 against L100I/K103N double mutant; assay type: cell-based, HIV-1; details: Example 4 (Table 1, not given)
HIV-1 = details: antiretroviral naïve patients; once daily 25, 50, 100, or 150 mg for seven days; day 8 versus before initial dosage; Goebel et al., 2006; cited from earlier work
Y181C RT mutant = biological target: T5, Y181C RT mutant (Human immunodeficiency virus type 1 group M subtype B, UniProt P03366, Y780C); experiment: EC50 of TMC278 against Y181C mutant; assay type: cell-based, HIV-1; details: Example 4
T5 construct: RT is a heterodimer consisting of a p66 and p51 subunit

rilpivirine [TMC278]
EC50 [1]: < 1 nM
EC50 (K103N RT mutant): < 1 nM
EC50 ([2]; K103N and Y181C (RT55A mutations), de Bethune et al. online poster 2005): 1.7 nM
EC50 ([2]; Lys103Asn/Tyr181Cys double mutant, Guillemont et al., 2005, Janssen et al): 1 nM
headaches reported, patients [3]: 14%
EC50 ([4]; L100I and K103N (RT51A mutations), de Bethune et al. online poster 2005, read-out: EC50): 2.7 nM
EC50 ([4]; double mutant Leu100Ile/Lys103Asn, Example 2, read-out: EC50 (the 50% effective concentration)): 7 nM
EC50 (wild-type RT; Example 2, read-out: EC50 (the 50% effective concentration)): 0.4 nM
EC50 (wild-type RT; de Bethune et al. online poster 2005, read-out: EC50): 0.51 nM
plasma concentrations of TMC278 ([5]; at any of the time points tested, target concentration 13.5 ng/ml): ≥ 0.0135 µg/mL
Bioavailability ([5]; patients, once daily dosage): excellent
EC50 [6]: ~8 nM
average decrease of HIV-1 RNA viral load (HIV-1): 1.199 log10 copies/ml
EC50 (Y181C RT mutant): < 1 nM
